Read-outs that look alike come from different tables or passages of the source.
Tests used:
[1] = system: Factor VII (FVII) protein; test: Measurement of Factor VII (FVII) protein in mouse plasma after FVII-siRNA lipid particles; format: in vivo, C57BL6/J mice; conditions: 0.1 mg/kg caudal vein, plasma 24 hours after administration, PBS group = 100%
Procedure: The Factor VII (FVII) protein was measured according to the method described in Nature Biotechnology (2010) 28, 172-176. C57BL6/J mice were randomly grouped (n=3). A dispersion liquid of nucleic acid lipid particles was prepared by the same method as that in <Preparation of nucleic acid lipid particles>, except that FVII-siRNA having the sequence described in Molecular Therapy (2009) 17, p. 878 was used instead of Luc-siRNA. The dispersion liquid was administered to the caudal vein of the mice at a dosage of 0.1 mg/kg. For comparison, PBS at the same volume was administered to the caudal vein of the mice. Twenty four hours after the administration, blood was collected from the caudal vena cava, thereby obtaining plasma. The amount of FVII protein was quantified using the obtained plasma and a Biophen FVII assay kit (Aniara).
The FVII amount in the plasma sample of each individual in the PBS administration group was regarded as 100%, and the ratio of the FVII amount in the plasma sample of each individual to 100% was adopted as a measurement value.

[2] = system: DMS273 cells constantly expressing Luc; test: Target reporter protein (Luc) knockdown in cell, reporter protein assay; format: cell-based; conditions: Homo sapiens, DMS-273
Procedure: The nucleic acid lipid particles prepared by the same method as that in <Preparation of nucleic acid lipid particles> by using the compounds described in Table 3 were evaluated by reporter assay by the following method.
By using pGL4.50 Luc2 (E1310 Promega), DMS273 cells (human small cell lung cancer) (European Collection of Authenticated Cell Cultures) constantly expressing Luc were prepared. RPMI (Gibco) (10% FBS (Gibco), 1% Penicillin-Streptomycin (Gibco), and 200 μg/mL Hygromycin (Wako)) was used as a culture medium. DMS273 cells (2.0×10^3) constantly expressing luciferase (Luc) were seeded in a 96-well plate and cultured in a 5% CO2 incubator for 24 hours, and then the medium was replaced. Then, 10 μL of each of the dispersion liquids of lipid particles diluted with PBS (Gibco) to yield a concentration of 1 to 1,000 nmol/L was added to the 96-well plate, and the final concentration was adjusted to 0.1 to 100 nmol/L (total amount of liquid: 110 μl). Thereafter, the cells were cultured in a 5% CO2 incubator for 24 hours, the medium was then replaced, and the cells were further cultured for 24 hours.
After the viable cell count was determined, the expression amount of Luc was quantified using a Steady Glo assay kit (Promega), and the knockdown efficiency was calculated according to the following equation. Then, the IC50 concentration at which the expression amount of Luc was knocked down to 50% was calculated.

[3] = Particle size of nucleic acid lipid particles (Luc2-siRNA); format: physicochemical; conditions: compound/DSPC/cholesterol/DMG-PEG2000 50/10/38.5/1.5
Summary of the method: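 Lipid particles formed from oil phase (test lipid/DSPC/cholesterol/DMG-PEG2000, 50/10/38.5/1.5 molar, 20 mmol/L total in ethanol) micromixed 1:3 with Luc2-siRNA in pH 4 acetate buffer (19.7 μmol/L); siRNA/lipid 339 mol/mol, PBS-diluted and dialyzed. Size measured on ELS-Z2 dynamic light scattering.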

[4] = Encapsulation rate of siRNA in nucleic acid lipid particles (Luc2-siRNA); format: physicochemical; conditions: compound/DSPC/cholesterol/DMG-PEG2000 50/10/38.5/1.5
Summary of the method: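 Encapsulation rate was calculated as (total − outer-phase siRNA)/total ×100. Total siRNA was quantified spectrophotometrically after lipid-dissolving ethanol precipitation, and unencapsulated siRNA by RiboGreen in TE (ex 485/em 535 nm). The particles were test lipid/DSPC/cholesterol/DMG-PEG2000 at 50/10/38.5/1.5, formed by microfluidic mixing with Luc2-siRNA at pH 4 and dialyzed against PBS.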

[5] = Luc2-siRNA lipid particles using the compound, siRNA 0.1 to 100 nmol/L, concentration at which Luc expression is knocked down to 50%, read-out: IC50

For `CCCCCCCC/C=C\CCCCCCCC(=O)OCCCCCCC(CCCCCCOC(=O)CCCCCCC/C=C\CCCCCCCC)OC(=O)OCCN(CC)CCN(CC)CC` [Example 41, 7-(((2-((2-(diethylamino)ethyl)(ethyl)amino)ethoxy)carbonyl)oxy)tridecane-1,13-diyldioleate], the “Relative amount of FVII protein (%)” value [1] was 18% and the IC50 [2, 5] was 14 nM.
With `CCCCCCCC/C=C\CCCCCCCC(=O)OCCCCCCC(CCCCCCOC(=O)CCCCCCC/C=C\CCCCCCCC)OC(=O)OCCN(CCN(CC)CC)C(C)C` [Example 48, 7-(((2-((2-(Diethylamino)ethyl)(isopropyl)amino)ethoxy)carbonyl)oxy)tridecane-1,13-diyldioleate] the “Relative amount of FVII protein (%)” value [1] was 20% and the IC50 [2, 5] was 43 nM.
With `CCCCCCCCC(CCCCCC)C(=O)OCCCCCCC(CCCCCCOC(=O)C(CCCCCC)CCCCCCCC)OC(=O)OCCN(CC)CCN(CC)CC` (stereo not drawn) [Example 56, 7-(((2-((2-(Diethylamino)ethyl)(ethyl)amino)ethoxy)carbonyl)oxy)tridecane-1,13-diylbis(2-hexyldecanoate)] the “Relative amount of FVII protein (%)” value [1] was 3% and the IC50 [2, 5] was 19 nM.
For `CCCCCCCCCC(CCCCCCC)C(=O)OCCCCCCC(CCCCCCOC(=O)C(CCCCCCC)CCCCCCCCC)OC(=O)OCCN(CC)CCN(CC)CC` (stereo not drawn) [Example 58, 7-(((2-((2-(Diethylamino)ethyl)(ethyl)amino)ethoxy)carbonyl)oxy)tridecane-1,13-diylbis(2-heptylundecanoate)], the “Relative amount of FVII protein (%)” value [1] was 14%.
With `CCN(CC)CCN(CC)CCOC(=O)OC(CCCCCCOC(=O)C(CCC(C)CC(C)(C)C)C(C)CC(C)(C)C)CCCCCCOC(=O)C(CCC(C)CC(C)(C)C)C(C)CC(C)(C)C` (stereo not drawn) [Example 59, 7-(((2-((2-(Diethylamino)ethyl)(ethyl)amino)ethoxy)carbonyl)oxy)tridecane-1,13-diylbis(2-(4,4-dimethylpentan-2-yl)-5,7,7-trimethyloctanoate)] the “Relative amount of FVII protein (%)” value [1] was 10%.
With `CCCCCCCCC(CCCCCC)C(=O)OCCCCCCC(CCCCCCOC(=O)C(CCCCCC)CCCCCCCC)OC(=O)OCCN(CCN(CC)CC)C(C)C` (stereo not drawn) [Example 62, 7-(((2-((2-(Diethylamino)ethyl)(isopropyl)amino)ethoxy)carbonyl)oxy)tridecane-1,13-diylbis(2-hexyldecanoate)] the “Relative amount of FVII protein (%)” value [1] was 3%.
With `CCCCCCCCC(CCCCCCCC)CC(=O)OCCCCCCC(CCCCCCOC(=O)CC(CCCCCCCC)CCCCCCCC)OC(=O)OCCN(CC)CCN(CC)CC` [Example 65, 7-(((2-((2-(Diethylamino)ethyl)(ethyl)amino)ethoxy)carbonyl)oxy)tridecane-1,13-diylbis(3-octylundecanoate)] the “Relative amount of FVII protein (%)” value [1] was 11%.
For `CCCCCCC(CCCCCC)CC(=O)OCCCCCCC(CCCCCCOC(=O)CC(CCCCCC)CCCCCC)OC(=O)OCCN(CC)CCN(CC)CC` [Example 67, 7-(((2-((2-(Diethylamino)ethyl)(ethyl)amino)ethoxy)carbonyl)oxy)tridecane-1,13-diylbis(3-hexylnonanoate)], the “Relative amount of FVII protein (%)” value [1] was 5% and the IC50 [2, 5] was 22 nM.
For `CCCCCCCC(CCCCCCC)CC(=O)OCCCCCCC(CCCCCCOC(=O)CC(CCCCCCC)CCCCCCC)OC(=O)OCCN(CC)CCN(CC)CC` [Example 70, 7-(((2-((2-(diethylamino)ethyl)(ethyl)amino)ethoxy)carbonyl)oxy)tridecane-1,13-diylbis(3-heptyldecanoate)], the “Relative amount of FVII protein (%)” value [1] was 6% and the IC50 [2] was 24 nM.
With `CCCCCCCCC(CCCCCC)C(=O)OCCCCCC(CCCCCOC(=O)C(CCCCCC)CCCCCCCC)OC(=O)OCCN(CC)CCN(CC)CC` (stereo not drawn) [Example 71, 6-(((2-((2-(Diethylamino)ethyl)(ethyl)amino)ethoxy)carbonyl)oxy)undecane-1,11-diylbis(2-hexyldecanoate)] the “Relative amount of FVII protein (%)” value [1] was 4%.
For `CCCCCCCCC(CCCCCC)C(=O)OCCCCC(CCCCOC(=O)C(CCCCCC)CCCCCCCC)OC(=O)OCCN(CC)CCN(CC)CC` (stereo not drawn) [Example 73, 5-(((2-((2-(Diethylamino)ethyl)(ethyl)amino)ethoxy)carbonyl)oxy)nonane-1,9-diylbis(2-hexyldecanoate)], the “Relative amount of FVII protein (%)” value [1] was 1% and the IC50 [2] was 24 nM.
In the case of `CCCCCCCCC(CCCCCCCC)C(=O)OCCCCCCC(CCCCCCOC(=O)C(CCCCCCCC)CCCCCCCC)OC(=O)OCCN(CC)CCN(CC)CC` [Example 74, 7-(((2-((2-(Diethylamino)ethyl)(ethyl)amino)ethoxy)carbonyl)oxy)tridecane-1,13-diylbis(2-octyldecanoate)], the “Relative amount of FVII protein (%)” value [1] is reported as 4% and the IC50 [2] is reported as 22 nM.
For `CCCCCCCC(CCCCCCC)C(=O)OCCCCCCC(CCCCCCOC(=O)C(CCCCCCC)CCCCCCC)OC(=O)OCCN(CC)CCN(CC)CC` [Example 76, 7-(((2-((2-(Diethylamino)ethyl)(ethyl)amino)ethoxy)carbonyl)oxy)tridecane-1,13-diylbis(2-heptylnonanoate)], the “Relative amount of FVII protein (%)” value [1] was 4% and the IC50 [2, 5] was 18 nM.
In the case of `CCCCCCC(CCCC)COC(=O)CCCC(CCCCCC)OC(=O)OCCN(CCO)CCN(CC)CC` (stereo not drawn) [Example 101, 2-Butyloctyl 3-ethyl-12-hexyl-6-(2-hydroxyethyl)-10-oxo-9,11-dioxa-3,6-diazahexadecan-16-oate], the “Particle size (nm)” value [3] is reported as 177.3 nm, the IC50 [2, 5] is reported as 39 nM and the “Nucleic acid encapsulation rate” value [4] is reported as 68%.
In the case of `CCCCCCCCC(CCCCCC)COC(=O)CCCC(CCCCCC)OC(=O)OCCN(CCO)CCN(CC)CC` (stereo not drawn) [Example 102, 2-Hexyldecyl 3-ethyl-12-hexyl-6-(2-hydroxyethyl)-10-oxo-9,11-dioxa-3,6-diazahexadecan-16-oate], the “Particle size (nm)” value [3] is reported as 147.2 nm, the IC50 [2, 5] is reported as 27 nM and the “Nucleic acid encapsulation rate” value [4] is reported as 70%.
With `CCCCCCCCC(CCCCCC)COC(=O)CCCCCC(CCCCCC)OC(=O)OCCN(CCN(CC)CC)C(C)C` (stereo not drawn) [Example 116, 2-Hexyldecyl 3-ethyl-12-hexyl-6-isopropyl-10-oxo-9,11-dioxa-3,6-diazaoctadecan-18-oate] the “Particle size (nm)” value [3] was 76.3 nm, the IC50 [2, 5] was 25 nM and the “Nucleic acid encapsulation rate” value [4] was 73%.
With `CCCCC/C=C\C/C=C\CCCCCCCCC(CCCCCCCC/C=C\C/C=C\CCCCC)OC(=O)CCCN(C)C` [Reference Example 1, (6Z,9Z,28Z,31Z)-heptatriaconta-6,9,28,31-tetraen-19-yl-4-(dimethylamino)butanoate, reference compound] the “Particle size (nm)” value [3] was 69.6 nm, the IC50 [2, 5] was 47 nM and the “Nucleic acid encapsulation rate” value [4] was 81%.
In the case of `CCCCC/C=C\C/C=C\CCCCCCCCN(CCCCCCCC/C=C\C/C=C\CCCCC)C(=O)OCC1CCCN(C)C1` (stereo not drawn) [Reference Example 2, (1-Methylpiperidin-3-yl)methyl di((9Z,12Z)-octadeca-9,12-dien-1-yl)carbamate, reference compound], the “Particle size (nm)” value [3] is reported as 118.4 nm, the IC50 [2, 5] is reported as 59 nM and the “Nucleic acid encapsulation rate” value [4] is reported as 85%.

Reference: patent US12370143B2, “Compound or salt thereof and lipid particles” (FUJIFILM Corporation, priority 2018, dated 2025)
